Data from PMC5513091, “A novel Alzheimer’s disease drug candidate targeting inflammation and fatty acid metabolism” (Alzheimer's Research & Therapy, 2017).

Target: CYP 2D6 (Homo sapiens, UniProt P10635)
Assay: CYP inhibition
Assay type: in vitro ADME

Sequence of CYP 2D6 (P10635 whole entry): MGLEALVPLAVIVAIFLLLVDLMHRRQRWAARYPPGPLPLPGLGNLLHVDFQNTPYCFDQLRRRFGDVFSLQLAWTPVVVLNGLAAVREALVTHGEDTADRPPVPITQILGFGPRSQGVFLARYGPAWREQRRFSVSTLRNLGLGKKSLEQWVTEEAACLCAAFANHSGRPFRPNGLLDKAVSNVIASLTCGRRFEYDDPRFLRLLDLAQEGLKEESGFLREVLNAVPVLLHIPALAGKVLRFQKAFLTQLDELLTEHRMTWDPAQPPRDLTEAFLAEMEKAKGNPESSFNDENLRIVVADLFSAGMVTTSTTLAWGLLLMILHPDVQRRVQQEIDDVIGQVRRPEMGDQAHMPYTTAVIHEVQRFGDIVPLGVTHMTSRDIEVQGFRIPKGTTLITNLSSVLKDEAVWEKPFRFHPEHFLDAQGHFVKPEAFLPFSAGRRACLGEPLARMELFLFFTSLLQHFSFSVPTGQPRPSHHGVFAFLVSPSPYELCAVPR

## Cc1ccc(N(/N=C/c2cccc(OC(F)(F)F)c2)C(=O)C(F)(F)F)c(C)c1 [CAD-31]
  EC50 at 10 µM: > 10 µM
